Assay results from patent US12391685B2, “Inhibitors of RNA-guided nuclease target binding and uses thereof” (THE BROAD INSTITUTE, INC., priority 2018, dated 2025).

What was measured:
SpCas9 [1] = target: T1, SpCas9 (Streptococcus pyogenes serotype M1, UniProt Q99ZW2); test: NHEJ assay in HEK293T cells; format: cell-based, S. pyogenes; conditions: 2-10 μM, 24 h
Experimental: NHEJ assay. Approximately 8,000 cells/well were seeded in a 96-well plate 24 h before transient transfection with a total 100 ng of DN66 (mCherry—TAG—GFP reporter) and DN78 (SpCas9 and gRNA) plasmids (1:1) using Lipofectamine 2000 (Life Technologies) (Nguyen et al., 2016b). Transfected cells were incubated with the indicated amount of small molecule or DMSO for 24 h. Cells were then fixed using 4% paraformaldehyde and imaged with the HCS NuclearMask™ Blue Stain (Life Technologies) as the nuclear counter-staining agent. Imaging was performed with an ImageXpress Micro automated microscope (Molecular Devices) at 4× magnification under three excitation channels (blue, green and red) with 9 acquisition sites per well. Images were analyzed in the MetaXpress software to determine the % NHEJ and the data were plotted using GraphPad Prism 6. The Z′-value was calculated following the formula: Z′=1−(3(σ1+σ2))/(|μ1−μ2|) where σ1 and σ2 are the standard deviations of DN66 transfected wells and (DN66+DN78) transfected wells respectively. μ1 and μ2 are the mean % GFP cell population for DN66 transfected wells and (DN66+DN78) transfected wells respectively.

SpCas9 [2] = target: T1, SpCas9; test: Cellular thermal shift assay (CETSA) in WM793 melanoma cells; format: cell-based, S. pyogenes; conditions: 15 μM, 24 h, WM793 cells stably expressing SpCas9
Experimental: Cellular Thermal Shift Assay (CETSA). Approximately 1× 10^6 cells pre-incubated with either DMSO or 15 μM BRD0539 for 24 h were resuspended in PBS and transferred to 200 μL PCR tubes. The suspended cells were heated to a different temperature for 3 min followed by lysis in 100 μL RIPA buffer containing protease inhibitors at 4° C. for 30 min. The clear cell lysate was collected by centrifuging the suspensions at 20,000×g for 20 min. The supernatant was transferred to a fresh tube and processed for Western blotting. Western blotting was performed using SDS-PAGE. In a typical experiment, 10 μg of proteins were electrophoresed on a 4-12% Bis-Tris gel and proteins were transferred to a PVDF membrane and probed with primary anti-SpCas9 antibody (abcam #ab191468). The membrane was imaged and bands were quantified using the LI-COR Odyssey imaging system. The CETSA curves were fitted with the equation, y=(U-L)/(1+e^(−(A/T−1)B))+L where, U and L are the upper and lower asymptotes, A is a half-way temperature, and B controls the slope of the sigmoid; temperature T is expressed in K. After the fitting, the data were re-normalized by dividing by U and the Tm was calculated using the formula Tm=AB/(B+log(1−2L/U)).

SpCas9 [3] = target: T1, SpCas9; test: HiBiT assay in U2OS.eGFP.PEST cells; format: cell-based, S. pyogenes; parameters: host or cells: U2OS.eGFP.PEST; conditions: 24 h
Experimental: HiBiT assay. For SpCas9 expression in cells, the previously described JDS246 plasmid was used (Kleinstiver et al., 2015b). ssODN donor DNA template with the HiBiT tag was purchased as single-stranded Ultramer DNA Oligonucleotides (IDT) and resuspended to 40 μM in nuclease-free water. For the assay, 2×10^5 cells were co-transfected with 300 ng Cas9 plasmid, 75 ng sgRNA plasmid and 100 ng ssODN using the DN-100 program of Lonza 4D nucleofector according to the manufacturer's protocols. For negative controls, either the sgRNA plasmid or the ssODN was omitted. 20,000 transfected cells were plated in each well of a 96-well plate (Corning 3904). Immediately after transfection, cells were treated with varying concentrations of BRD0539 or BRD3433 and incubated at 37° C. with 5% CO2. 24 h after transfection, the cells were washed once with PBS and kept in 80 μL PBS. An equal volume of the Nano-Glo HiBiT Lytic Reagent (Promega N3030), consisting of Nano-Glo HiBiT Lytic Buffer, Nano-Glo HiBiT Lytic Substrate, and LgBiT Protein, was added according to the manufacturer's protocol, and cells were incubated for 10 min at ambient temperature with shaking at 600 rpm (Schwinn et al., 2018a). The cells were then incubated for an additional 10 min without shaking at room temperature to allow equilibration of the HiBiT and LgBiT in the lysate. The lysate was then transferred to a white plate (Corning 3990) and luminescence was measured using an Envision plate reader (Perkin-Elmer) with 1 s of integration time.

SpCas9:gRNA interaction = target: T2, SpCas9:gRNA interaction (Streptococcus pyogenes serotype M1, UniProt Q99ZW2); test: Fluorescence polarization assay for SpCas9-gRNA binding; parameters: species or system S. pyogenes; conditions: 10-30 μM
T2 construct: made in house; host or cells: E. coli Rosetta (DE3)
T2 sequence (Q99ZW2 whole entry): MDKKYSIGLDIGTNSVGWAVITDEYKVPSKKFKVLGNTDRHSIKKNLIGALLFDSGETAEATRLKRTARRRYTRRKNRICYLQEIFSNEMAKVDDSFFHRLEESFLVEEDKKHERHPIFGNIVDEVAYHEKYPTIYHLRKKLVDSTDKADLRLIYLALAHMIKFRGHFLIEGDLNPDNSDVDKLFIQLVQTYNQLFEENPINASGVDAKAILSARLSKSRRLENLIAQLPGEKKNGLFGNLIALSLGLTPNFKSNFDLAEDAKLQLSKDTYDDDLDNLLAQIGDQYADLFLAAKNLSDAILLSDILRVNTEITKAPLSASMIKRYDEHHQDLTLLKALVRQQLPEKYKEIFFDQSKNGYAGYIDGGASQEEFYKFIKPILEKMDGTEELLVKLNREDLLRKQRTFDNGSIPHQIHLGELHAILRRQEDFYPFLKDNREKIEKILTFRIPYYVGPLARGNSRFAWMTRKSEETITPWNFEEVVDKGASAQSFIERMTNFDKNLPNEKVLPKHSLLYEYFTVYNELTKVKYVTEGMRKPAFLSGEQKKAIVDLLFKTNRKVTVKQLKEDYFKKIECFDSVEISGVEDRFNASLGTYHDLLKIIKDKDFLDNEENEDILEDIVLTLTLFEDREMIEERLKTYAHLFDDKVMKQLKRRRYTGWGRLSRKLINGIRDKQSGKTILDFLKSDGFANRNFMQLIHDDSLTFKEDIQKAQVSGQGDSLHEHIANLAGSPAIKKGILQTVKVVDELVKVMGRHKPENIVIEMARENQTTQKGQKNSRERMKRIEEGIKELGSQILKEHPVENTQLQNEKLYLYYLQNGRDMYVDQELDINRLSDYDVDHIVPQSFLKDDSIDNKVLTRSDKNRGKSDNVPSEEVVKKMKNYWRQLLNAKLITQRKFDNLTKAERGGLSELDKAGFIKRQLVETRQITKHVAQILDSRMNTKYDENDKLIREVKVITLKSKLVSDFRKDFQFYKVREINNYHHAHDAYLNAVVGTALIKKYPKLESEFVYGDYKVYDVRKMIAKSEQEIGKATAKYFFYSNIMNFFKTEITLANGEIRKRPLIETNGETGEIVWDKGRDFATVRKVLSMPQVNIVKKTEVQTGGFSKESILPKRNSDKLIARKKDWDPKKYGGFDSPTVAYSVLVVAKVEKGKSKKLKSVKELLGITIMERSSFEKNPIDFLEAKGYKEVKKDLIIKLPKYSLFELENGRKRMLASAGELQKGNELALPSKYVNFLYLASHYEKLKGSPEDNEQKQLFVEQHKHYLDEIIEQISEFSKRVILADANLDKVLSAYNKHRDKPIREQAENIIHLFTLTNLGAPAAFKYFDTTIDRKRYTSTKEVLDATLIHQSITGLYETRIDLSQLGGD
Experimental: FIGS. 10A-10E—(FIG. 10A) Fluorescence polarization assay for detecting SpCas9-gRNA binding. A FITC-labeled crRNA:tracrRNA (25 nM) was titrated with an increasing amount of SpCas9 (7.5-250 nM). Error bars represent ±s.d. across technical replicates (n=3). […] An unlabeled crRNA:tracrRNA (25 nM) was pre-incubated with SpCas9 (25 nM) for 10 min before the addition of FITCcrRNA:tracrRNA (25 nM). Error bars represent ±s.d. across technical replicates (n=3). (FIG. 10C) Fluorescence polarization assay for determining the effect of BRD0539 in the SpCas9-FITCcrRNA:tracrRNA binding. SpCas9 (25 nM) was incubated with the indicated amount of BRD0539 (10-30 μM) for 15 min followed by the addition of FITC-crRNA:tracrRNA (25 nM), which was incubated for 30 min before measuring the FP signal. Error bars represent ±s.d. across technical replicates (n=3). (FIG. 10D) In vitro pulldown assay of SpCas9 by the BRD0539-biotin conjugate from WM793-SpCas9 cell lysate. Streptavidin magnetic beads pre-loaded with either BRD0539-biotin or biotin-azide were incubated with WM793-SpCas9 cell lysate for 12 h before processing the samples for western blotting. BRD0539 (20 μM) was used as a competitor. F and E represent the flow-through and eluent, respectively. […]

T1 sequence (Q99ZW2 whole entry): as above

| SMILES | inhibition of SpCas9 in the NHEJ assay (in words) (SpCas9 [1]) | lowering in the melting temperature of SpCas9 (SpCas9 [2]) | inhibition of SpCas9 in the HiBiT assay (in words) (SpCas9 [3]) | higher activity of BRD0539 than BRD3497 and BRD9419 in the HiBiT assay (SpCas9 [3]; tested from 4.8-15 μM) | effect on SpCas9-FITC-crRNA:tracrRNA polarization signal (SpCas9:gRNA interaction) |
| --- | --- | --- | --- | --- | --- |
| OC[C@H]1Nc2ccc(-c3cccc(F)c3)cc2[C@H]2[C@@H]1CCN2Cc1ccncc1 [BRD7087, ((3aR,4S,9bR)-8-(3-Fluorophenyl)-1-(pyridin-4-ylmethyl)-2,3,3a,4,5,9b-hexahydro-1H-pyrrolo[3,2-c]quinolin-4-yl) methanol] | dose-dependent inhibition | – | – | – | – |
| Cc1ccc(S(=O)(=O)N2CC[C@@H]3[C@H](CO)Nc4ccc(-c5ccccc5F)cc4[C@@H]32)cc1 [BRD0539, ((3aR,4R,9bR)-8-(2-fluorophenyl)-1-tosyl-2,3,3a,4,5,9b-hexahydro-1H-pyrrolo[3,2-c]quinolin-4-yl) methanol] | – | ~2.5 °C | dose-dependent inhibition | greater than two-fold | did not perturb the polarization signal |
